Reference: PMC11298173 (Drug Design, Development and Therapy, 2024)

How the values were obtained:
[1] = NEF-105 study: budesonide plasma pharmacokinetics; assay type: in vivo; details: human, po
[2] = test system: patients with IgAN; details: TESTING trial, at 3 months, diminishing over time; cited from earlier work

Structure (SMILES) | half-life [1] | Effect on proteinuria vs placebo [2]
CCCC1O[C@@H]2C[C@H]3[C@@H]4CCC5=CC(=O)C=C[C@]5(C)[C@H]4[C@@H](O)C[C@]3(C)[C@]2(C(=O)CO)O1 (some centres unmarked) [budesonide] | ~5 h | 
C[C@H]1C[C@@H]2[C@H]([C@@H](O)C[C@@]3(C)[C@H]2CC[C@]3(O)C(=O)CO)[C@@]2(C)C=CC(=O)C=C12 [methylprednisolone] |  | substantial effect
